In patent publication US11185100B2 (priority 2014, dated 2021):
“And” between values parts separate entries of the source, which are not always exact repeats. Equal entries are not always repeated. Structures can show the parent of a compound that is named as a salt.

Legend:
[1] = molecular target: T1, cat T1R1/T1R3 receptor (Felis catus, UniProt E3UMS2); assay: Activation of cat T1R1/T1R3 receptor by nucleotide derivatives alone, with alanine and/or IMP; HEK293 cells, intracellular calcium fluorescence (Example 1); format: cell-based
Text: […] Activation of the T1R1/T1R3 receptor was detected by a change in intracellular calcium levels using a calcium sensitive fluorescent dye. Cells that express T1R3 but not T1R1 were used as a control. A FLIPR® Tetra or a FlexStation® 3 was used for data capture.
The term half maximal effective concentration (EC50) refers to the concentration of a compound which induces a response halfway between the baseline and the maximum after a specified exposure time. In each experiment, serial dilutions of up to 0.1 mM, 1 mM or 10 mM of the nucleotide derivative were added to the T1R1/T1R3-expressing cells.

[2] = molecular target: T1, cat T1R1/T1R3 receptor; assay: cell-based; format: cell-based
Procedure, shortened: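 Umami receptor activation in HEK293 cells stably expressing T1R3 with inducible T1R1, exposed to nucleotide derivatives alone or combined with amino acids and/or nucleotides. Intracellular calcium read with a calcium-sensitive fluorescent dye and/or luminescent reporter; cells expressing T1R3 without T1R1 served as control.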

[3] = molecular target: T2, T1R1/T1R3 receptor (Felis catus, UniProt E3UMS2); assay: Activation of T1R1/T1R3 receptor by transmembrane compounds and nucleotide derivatives, conducted as in Examples 1, 2 and 5 (Example 7); format: cell-based, cat
Procedure, shortened: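 HEK293 cells stably expressing feline T1R3 with inducible T1R1 were given serial dilutions of transmembrane compound up to 10 mM, alone or with amino acids and/or nucleotides. Activation was read as an intracellular calcium change by fluorescent dye on FLIPR Tetra or FlexStation 3. T1R3-only cells served as control.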

[4] = molecular target: T2, T1R1/T1R3 receptor; assay: Agonist screening of transmembrane compounds on T1R1/T1R3 in HEK293 cells (Example 8); format: cell-based, cat; conditions: compound alone
Procedure: (§1) Agonist Screening Method: HEK293 cells that stably express T1R3 and inducibly express T1R1 were exposed to a transmembrane compound. Activation of the T1R1/T1R3 receptor was detected by a change in intracellular calcium levels using a calcium sensitive fluorescent dye and/or a luminescent reporter system. […] A FLIPR® Tetra or a FlexStation® 3 was used for data capture.
Each transmembrane compound was tested at concentrations of 0.01 mM, 0.1 mM, and 1 mM. […] To generate the dose response curves, the transmembrane compound was tested at concentrations of between 0.0001 mM and 1.0 mM in the presence of GMP and Ala.

[5] = molecular target: T2, T1R1/T1R3 receptor; assay: PAM screening of transmembrane compounds with GMP and Ala on T1R1/T1R3 in HEK293 cells (Example 8); format: cell-based, cat; conditions: in the presence of GMP and Alanine
Text: as §1, with “PAM” for “Agonist”, “to” for “to a”, “compound alone or in combination with Ala and GMP to activate the umami receptor.” for “compound.”
Dose response curves were generated for each transmembrane compound at concentrations of 0 (buffer only), 0.01, 0.1 and 1 mM, wherein each of the three concentrations of transmembrane compound was tested in combination with 0.03 mM GMP+100 mM Ala (T1); 0.6 mM GMP+10 mM Ala (T2); 0.1 mM GMP+60 mM Ala (T3) and 0.3 mM GMP+60 mM Ala (T4). The T4 mixture was also tested in a 2-fold dilution series (the T4(X) Concentration). In these experiments, the first test concentration was 2× (2 times) the T4 concentration. The subsequent test concentrations were 2-fold dilutions from that (1×, 0.5× etc.). This dilution series was tested with or without the addition of the test compound at a constant 0.3 mM concentration.
Activation of the umami receptor was also determined in the presence of 1 mM GMP+100 mM Ala to generate a “maximum” umami receptor activation level.

[6] = molecular target: T2, T1R1/T1R3 receptor; assay: Activation of T1R1/T1R3 receptor by transmembrane compounds alone or with alanine, IMP, GMP, phenylalanine; HEK293 cells, calcium fluorescence (Example 5); format: cell-based, cat
Procedure, shortened: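 HEK293 cells stably expressing feline T1R3 with inducible T1R1 treated with serial dilutions (up to 10 mM) of transmembrane compounds, alone or combined with amino acids and/or nucleotides. Activation read as intracellular calcium change via calcium-sensitive fluorescent dye; T1R3-only cells served as control.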

[7] = EC50- with IMP (mM), with 0.2 mM IMP
[8] = compound alone in buffer, read-out: EC50- alone
[9] = with 20 mM alanine, read-out: EC50- with Ala

O=c1nc[nH]c2c1ncn2C1O[C@H](COP(=O)(O)OP(=O)(O)OP(=O)(O)O)[C@@H](O)[C@H]1O (some centres unmarked) [inosine triphosphate (ITP) trisodium salt]
EC50 ([1]; EC50- with Ala and IMP (mM), with 20 mM alanine and 0.2 mM IMP): 0.03 ± 0.01 mM
EC50 [1, 7]: 0.02 ± 0.03 mM
EC50 [1, 8]: 0.05 ± 0.03 mM
Activity [2]: active
Max. resp. % of IMP ([2]; hek293 cells): 25.1 % of IMP
EC50 ([2]; in the presence of 20 mM alanine, read-out: EC50- with Ala): 80 µM

COC(=O)[C@H](Cc1ccccc1)NCc1ccccc1 [N-Benzyl-L-phenylalanine methyl ester]
Max resp ΔF/F +Alanine (20 mM) [3]: 1.8725 ΔF/F
Thres +Alanine (20 mM) [3]: 0.01 mM
Max resp % of Ala +IMP (0.2 mM) ([3]; +IMP (0.2 mM)): 289.4 % of Ala
Max resp ΔF/F +IMP (0.2 mM) ([3]; +IMP (0.2 mM)): 2.2500 ΔF/F
Thres +IMP (0.2 mM) ([3]; +IMP (0.2 mM)): 0.003 mM
Max resp % of IMP +Alanine (20 mM) ([3]; hek293 cells): 273.4 % of IMP
Activity ([3]; modulation of T1R1/T1R3): active
agonist profile assessment (activation of T1R1/T1R3 by the compound alone) [4]: agonist
PAM profile assessment (activation of T1R1/T1R3 in the presence of GMP and Alanine) [5]: PAM activity

CCCC(CCC)NC(=O)c1ccc2c(c1)OCO2 [N-(heptan-4-yl)benzo[d][1,3]dioxole-5-carboxamide]
+Alanine (20 mM) Max resp % of IMP ([6]; +Alanine (20 mM)): 142.7 % of IMP and 118.2 % of IMP
+Alanine (20 mM) Max resp ΔF/F ([6]; +Alanine (20 mM)): 1.7725 ΔF/F and 1.2 ΔF/F
Max resp % of IMP +Alanine (20 mM) ([6]; +Alanine (20 mM), relative to IMP): 118.2% and 142.7%
+IMP (0.2 mM) Max resp % of Ala ([6]; +IMP (0.2 mM)): 119.6 % of Ala and 165.8 % of Ala
+IMP (0.2 mM) Max resp ΔF/F ([6]; +IMP (0.2 mM)): 1.4725 ΔF/F
Max resp ΔF/F +IMP (0.2 mM) ([6]; +IMP (0.2 mM)): 1.393 ΔF/F and 1.473 ΔF/F
Max resp % of Ala +IMP (0.2 mM) ([6]; +IMP (0.2 mM), relative to Ala): 165.8% and 119.6%
Activity ([6]; Table 18, all transmembrane compounds tested, active / N/A (not active)): active
ΔF/F0 of ternary mixture with phenylalanine and GMP compared to phenylalanine and GMP without the agonist ([6]; with phenylalanine and GMP): approximately 10 ×
agonist profile assessment (activation of T1R1/T1R3 by the compound alone) [4]: agonist
PAM profile assessment (activation of T1R1/T1R3 in the presence of GMP and Alanine) [5]: PAM activity

C[C@H](N)C(=O)O [alanine, reference compound]
EC50 [1, 8]: 13.6 mM

Nc1ncnc2c1ncn2C1OC(COP(=O)(O)O)C(OP(=O)(O)O)C1O (centres unmarked) [listing 1 of 2 here]
EC50 [1, 8]: > 0.03 mM
EC50 [1, 9]: 0.003 ± 0.0003 mM

Nc1ncnc2c1ncn2C1OC(COP(=O)(O)O)C(OP(=O)(O)O)C1O (centres unmarked) [listing 2 of 2 here]
EC50 [1, 7]: > 0.01 mM
EC50 [1, 8]: > 0.01 mM
EC50 [1, 9]: > 0.01 mM
